The values below come from PMC5218480 (PLoS ONE, 2017).

The subject of the assay is MV-4-11 cells. Nature of the assay: Gene expression microarray analysis (Affymetrix PrimeView) and GSEA. The assay is classed as cell-based, human. Also noted: RFU PODN (11730768_x_at) / Fold change /veh PODN (11730768_x_at) / RFU LINC00158 (11744669_a_at) / Fold change /veh LINC00158 (11744669_a_at) / RFU DUSP10 (11751237_a_at) / Fold change /veh DUSP10 (11751237_a_at) / RFU ID3 (11757404_x_at) / Fold change /veh ID3 (11757404_x_at) / RFU PLEKHG5 (11737974_s_at) / Fold change /veh PLEKHG5 (11737974_s_at) / RFU LRRC4B (11730491_at) / Fold change /veh LRRC4B (11730491_at) / RFU GIMAP4 (11747438_a_at) / Fold change /veh GIMAP4 (11747438_a_at) / RFU KRT8 (11758183_x_at) / Fold change /veh KRT8 (11758183_x_at) / RFU CNN1 (11734310_a_at) / Fold change /veh CNN1 (11734310_a_at) / RFU VPS37D (11726825_at) / Fold change /veh VPS37D (11726825_at) / RFU C10orf10 (11716522_x_at) / Fold change /veh C10orf10 (11716522_x_at) / RFU KIR2DL2 /// KIR2DL4 /// KIR2DL5A /// KIR2DL5B /// KIR2DS1 /// KIR2DS2 /// KIR2DS3 /// KIR2DS4 /// KIR3DL3 /// KIR3DL3 /// KIR3DS1 (11738374_at) / Fold change /veh KIR2DL2 /// KIR2DL4 /// KIR2DL5A /// KIR2DL5B /// KIR2DS1 /// KIR2DS2 /// KIR2DS3 /// KIR2DS4 /// KIR3DL3 /// KIR3DL3 /// KIR3DS1 (11738374_at) / RFU C1QL1 (11718748_at) / Fold change /veh C1QL1 (11718748_at) / RFU TMPRSS4 (11747572_a_at) / Fold change /veh TMPRSS4 (11747572_a_at) / RFU HAMP (11756126_x_at) / Fold change /veh HAMP (11756126_x_at) / RFU RNFT2 (11725882_a_at) / Fold change /veh RNFT2 (11725882_a_at) / RFU NR4A2 (11747474_a_at) / Fold change /veh NR4A2 (11747474_a_at) / RFU ABCC12 (11746883_a_at) / Fold change /veh ABCC12 (11746883_a_at) / RFU TMEM136 (11760407_x_at) / Fold change /veh TMEM136 (11760407_x_at) / RFU CLDN22 /// WWC2 (11732394_at) / Fold change /veh CLDN22 /// WWC2 (11732394_at) / RFU HLA-DPB1 (11760878_x_at) / Fold change /veh HLA-DPB1 (11760878_x_at) / RFU SPINT1 (11716480_a_at) / Fold change /veh SPINT1 (11716480_a_at) / RFU GAP43 (11754022_s_at) / Fold change /veh GAP43 (11754022_s_at) / RFU A4GNT (11735810_at) / Fold change /veh A4GNT (11735810_at) / RFU PRB3 (11715151_x_at) / Fold change /veh PRB3 (11715151_x_at) / RFU TUBB4B (11761932_at) / Fold change /veh TUBB4B (11761932_at) / RFU CAPN14 (11732068_a_at) / Fold change /veh CAPN14 (11732068_a_at) / RFU TMCC2 (11721928_a_at) / Fold change /veh TMCC2 (11721928_a_at) / RFU IRGQ (11745062_a_at) / Fold change /veh IRGQ (11745062_a_at) / RFU FAM174B (11720279_a_at) / Fold change /veh FAM174B (11720279_a_at) / RFU TMPRSS4 (11748680_a_at) / Fold change /veh TMPRSS4 (11748680_a_at) / RFU FAM212B (11763350_a_at) / Fold change /veh FAM212B (11763350_a_at) / RFU PLEKHG5 (11743358_a_at) / Fold change /veh PLEKHG5 (11743358_a_at) / RFU ZSCAN30 (11745921_a_at) / Fold change /veh ZSCAN30 (11745921_a_at) / RFU CMKLR1 (11741424_a_at) / Fold change /veh CMKLR1 (11741424_a_at) / RFU LOC101060620 /// MAPK8IP1 (11723275_at) / Fold change /veh LOC101060620 /// MAPK8IP1 (11723275_at) / RFU SPTSSB (11747773_x_at) / Fold change /veh SPTSSB (11747773_x_at) / RFU PRSS12 (11739890_at) / Fold change /veh PRSS12 (11739890_at) / RFU BIN1 (11741810_x_at) / Fold change /veh BIN1 (11741810_x_at) / RFU WNT11 (11732464_a_at) / Fold change /veh WNT11 (11732464_a_at) / RFU C10orf10 (11716521_a_at) / Fold change /veh C10orf10 (11716521_a_at) / RFU C5orf56 (11738089_at) / Fold change /veh C5orf56 (11738089_at) / RFU CYB561 (11721691_x_at) / Fold change /veh CYB561 (11721691_x_at) / RFU ANKRD19P (11752326_a_at) / Fold change /veh ANKRD19P (11752326_a_at) / RFU OR2T12 /// OR2T33 /// OR2T8 (11738714_s_at) / Fold change /veh OR2T12 /// OR2T33 /// OR2T8 (11738714_s_at) / RFU VCAN (11748164_a_at) / Fold change /veh VCAN (11748164_a_at) / RFU JSRP1 (11732532_at) / Fold change /veh JSRP1 (11732532_at) / RFU KRTAP10-11 (11738290_x_at) / Fold change /veh KRTAP10-11 (11738290_x_at) / RFU MYO3A (11730013_a_at) / Fold change /veh MYO3A (11730013_a_at) / RFU EBF3 (11725865_a_at) / Fold change /veh EBF3 (11725865_a_at) / RFU CAMK2N1 (11719241_x_at) / Fold change /veh CAMK2N1 (11719241_x_at) / RFU C5orf56 (11738088_a_at) / Fold change /veh C5orf56 (11738088_a_at) / RFU OLFML3 (11715873_a_at) / Fold change /veh OLFML3 (11715873_a_at) / RFU LOC100653217 /// NTM (11731650_a_at) / Fold change /veh LOC100653217 /// NTM (11731650_a_at) / RFU MAPK11 (11762145_a_at) / Fold change /veh MAPK11 (11762145_a_at) / RFU FIZ1 (11724087_x_at) / Fold change /veh FIZ1 (11724087_x_at) / RFU OASL (11726364_x_at) / Fold change /veh OASL (11726364_x_at) / RFU SOX15 (11748057_x_at) / Fold change /veh SOX15 (11748057_x_at) / RFU CD79A (11719716_a_at) / Fold change /veh CD79A (11719716_a_at) / RFU HIST1H1D (11736915_at) / Fold change /veh HIST1H1D (11736915_at) / RFU CASKIN2 (11723855_a_at) / Fold change /veh CASKIN2 (11723855_a_at) / RFU LOC730098 (11760151_x_at) / Fold change /veh LOC730098 (11760151_x_at) / RFU OR4N2 (11742367_at) / Fold change /veh OR4N2 (11742367_at) / RFU PRRT2 (11749266_a_at) / Fold change /veh PRRT2 (11749266_a_at) / RFU SNX32 (11753110_a_at) / Fold change /veh SNX32 (11753110_a_at) / RFU CDHR5 (11726645_a_at) / Fold change /veh CDHR5 (11726645_a_at) / RFU RCAN1 (11760418_a_at) / Fold change /veh RCAN1 (11760418_a_at) / RFU FAM167A (11723789_a_at) / Fold change /veh FAM167A (11723789_a_at) / RFU FAM26E (11764081_at) / Fold change /veh FAM26E (11764081_at) / RFU ISYNA1 (11749810_s_at) / Fold change /veh ISYNA1 (11749810_s_at) / RFU ACY1 (11761880_at) / Fold change /veh ACY1 (11761880_at) / RFU 11764098_at / Fold change /veh 11764098_at / RFU SAMD14 (11745864_x_at) / Fold change /veh SAMD14 (11745864_x_at) / RFU NPB (11741838_a_at) / Fold change /veh NPB (11741838_a_at) / RFU TMPRSS6 (11731388_a_at) / Fold change /veh TMPRSS6 (11731388_a_at) / RFU KRTAP10-2 (11738614_at) / Fold change /veh KRTAP10-2 (11738614_at) / RFU ARHGAP8 /// PRR5-ARHGAP8 (11727945_x_at) / Fold change /veh ARHGAP8 /// PRR5-ARHGAP8 (11727945_x_at) / RFU KRTAP5-7 /// NADSYN1 (11734609_at) / Fold change /veh KRTAP5-7 /// NADSYN1 (11734609_at) / RFU RASL12 (11751679_a_at) / Fold change /veh RASL12 (11751679_a_at) / RFU CDKN2B (11736163_a_at) / Fold change /veh CDKN2B (11736163_a_at) / RFU PRF1 (11729649_at) / Fold change /veh PRF1 (11729649_at) / RFU, ZNF638 /// ZNF638-IT1 / Fold change vs veh, ZNF638 /// ZNF638-IT1 / RFU, PANK3 / Fold change vs veh, PANK3 / RFU, SH3YL1 / Fold change vs veh, SH3YL1 / RFU, ZEB2 / Fold change vs veh, ZEB2 / RFU, NRIP1 / Fold change vs veh, NRIP1 / RFU, PTTG1IP / Fold change vs veh, PTTG1IP / RFU, CAPN2 / Fold change vs veh, CAPN2 / RFU, MED14 / Fold change vs veh, MED14 / RFU, SNORA58 / Fold change vs veh, SNORA58 / RFU, C1orf63 / Fold change vs veh, C1orf63 / RFU, LRRFIP1 / Fold change vs veh, LRRFIP1 / RFU, NDUFAF7 / Fold change vs veh, NDUFAF7 / RFU, SLC12A2 / Fold change vs veh, SLC12A2 / RFU, IBTK / Fold change vs veh, IBTK / RFU, ESF1 / Fold change vs veh, ESF1 / Fold change vs veh, TMEM50B / RFU, TAOK1 / Fold change vs veh, TAOK1 / RFU, ACBD3 / Fold change vs veh, ACBD3 / RFU, TMA16 / Fold change vs veh, TMA16 / RFU, RWDD3 / Fold change vs veh, RWDD3 / RFU, BCAT1 / Fold change vs veh, BCAT1 / RFU, EDEM3 / Fold change vs veh, EDEM3 / RFU, TMEM33 / Fold change vs veh, TMEM33 / RFU, WDR75 / Fold change vs veh, WDR75 / RFU, AHCTF1 / Fold change vs veh, AHCTF1 / RFU, TFRC / Fold change vs veh, TFRC / RFU, ZDHHC17 / Fold change vs veh, ZDHHC17 / RFU, NOM1 / Fold change vs veh, NOM1 / RFU, ARL8B / Fold change vs veh, ARL8B / RFU, ZBTB11 / Fold change vs veh, ZBTB11 / RFU, TAMM41 / Fold change vs veh, TAMM41 / RFU, KIAA1704 /// LOC100996395 / Fold change vs veh, KIAA1704 /// LOC100996395 / RFU, ING1 / Fold change vs veh, ING1 / RFU, TRMT61B / Fold change vs veh, TRMT61B / RFU, FUBP3 / Fold change vs veh, FUBP3 / RFU, TP53 / Fold change vs veh, TP53 / RFU, TNKS2 / Fold change vs veh, TNKS2 / RFU, ZFP14 / Fold change vs veh, ZFP14 / RFU, ACTR2 / Fold change vs veh, ACTR2 / RFU, PPP3R1 / Fold change vs veh, PPP3R1 / RFU, PIK3R1 / Fold change vs veh, PIK3R1 / RFU, HNRNPA1 / Fold change vs veh, HNRNPA1 / RFU, RNF170 / Fold change vs veh, RNF170 / RFU, ZNF28 / Fold change vs veh, ZNF28 / RFU, RNGTT / Fold change vs veh, RNGTT / RFU, OGT / Fold change vs veh, OGT / RFU, BRD1 / Fold change vs veh, BRD1 / RFU, MARS / Fold change vs veh, MARS / RFU, ZNF655 / Fold change vs veh, ZNF655 / RFU, FAHD1 / Fold change vs veh, FAHD1 / RFU, BDP1 / Fold change vs veh, BDP1 / RFU, LRRCC1 / Fold change vs veh, LRRCC1 / RFU, ARID1A / Fold change vs veh, ARID1A / RFU, ZNF146 / Fold change vs veh, ZNF146 / RFU, ZNF330 / Fold change vs veh, ZNF330 / RFU, GPN3 / Fold change vs veh, GPN3 / RFU, C9orf123 / Fold change vs veh, C9orf123 / RFU, N4BP2L2 / Fold change vs veh, N4BP2L2 / RFU, ARFIP1 / Fold change vs veh, ARFIP1 / RFU, FAM179B / Fold change vs veh, FAM179B / RFU, BCL10 / Fold change vs veh, BCL10 / RFU, UHRF1BP1L / Fold change vs veh, UHRF1BP1L / RFU, BET1 / Fold change vs veh, BET1 / RFU, CNOT2 / Fold change vs veh, CNOT2 / RFU, ZNF268 / Fold change vs veh, ZNF268 / Fold change vs veh, ZNF507 / RFU, DGCR2 / Fold change vs veh, DGCR2 / RFU, WDSUB1 / Fold change vs veh, WDSUB1 / Fold change vs veh, HSP90B1 /// MIR3652 / RFU, ADSS / Fold change vs veh, ADSS / RFU, GK / Fold change vs veh, GK / RFU, ZNF148 / Fold change vs veh, ZNF148 / RFU, TAF9 / Fold change vs veh, TAF9 / RFU, SLC1A5 / Fold change vs veh, SLC1A5 / RFU, SLMO2 / Fold change vs veh, SLMO2 / RFU, ABCC4 / Fold change vs veh, ABCC4 / RFU, LOC101060439 /// RAP1B / Fold change vs veh, LOC101060439 /// RAP1B / RFU, RFX7 / Fold change vs veh, RFX7 / RFU, GTPBP10 / Fold change vs veh, GTPBP10 / RFU, CNEP1R1 / Fold change vs veh, CNEP1R1 / RFU, BIVM-ERCC5 /// ERCC5 / Fold change vs veh, BIVM-ERCC5 /// ERCC5 / RFU, ILF3 / Fold change vs veh, ILF3 / RFU 11762660_at / Fold change /veh 11762660_at / RFU VCAN (11757783_s_at) / Fold change /veh VCAN (11757783_s_at) / RFU DDX43 (11728927_at) / Fold change /veh DDX43 (11728927_at) / RFU KRT8 (11758188_x_at) / Fold change /veh KRT8 (11758188_x_at) / RFU NKD1 (11759106_at) / Fold change /veh NKD1 (11759106_at) / RFU SRD5A1 (11742802_a_at) / Fold change /veh SRD5A1 (11742802_a_at) / RFU TPSAB1 /// TPSB2 (11721975_s_at) / Fold change /veh TPSAB1 /// TPSB2 (11721975_s_at) / RFU GSTM3 (11746129_a_at) / Fold change /veh GSTM3 (11746129_a_at) / RFU IL23R (11737362_x_at) / Fold change /veh IL23R (11737362_x_at) / RFU TMEM51 (11727254_a_at) / Fold change /veh TMEM51 (11727254_a_at) / RFU PIWIL2 (11732686_x_at) / Fold change /veh PIWIL2 (11732686_x_at) / RFU ORM1 (11744905_x_at) / Fold change /veh ORM1 (11744905_x_at) / RFU CCDC152 (11743942_at) / Fold change /veh CCDC152 (11743942_at) / RFU ECM1 (11717891_a_at) / Fold change /veh ECM1 (11717891_a_at) / RFU IL23R (11748794_a_at) / Fold change /veh IL23R (11748794_a_at) / RFU TNFAIP8L3 (11732012_x_at) / Fold change /veh TNFAIP8L3 (11732012_x_at) / RFU MBOAT4 (11741988_at) / Fold change /veh MBOAT4 (11741988_at) / RFU 11764193_at / Fold change /veh 11764193_at / RFU TMEM53 (11763286_at) / Fold change /veh TMEM53 (11763286_at) / RFU MAGEB2 (11727129_at) / Fold change /veh MAGEB2 (11727129_at) / RFU TMEM200A (11744735_a_at) / Fold change /veh TMEM200A (11744735_a_at) / RFU CCDC152 (11751479_a_at) / Fold change /veh CCDC152 (11751479_a_at) / RFU FAM211A (11726209_a_at) / Fold change /veh FAM211A (11726209_a_at) / RFU RGS16 (11746705_a_at) / Fold change /veh RGS16 (11746705_a_at) / RFU VCAN (11755009_s_at) / Fold change /veh VCAN (11755009_s_at) / RFU RHOB (11743442_s_at) / Fold change /veh RHOB (11743442_s_at) / RFU RGS16 (11720943_a_at) / Fold change /veh RGS16 (11720943_a_at) / RFU RGS16 (11720944_at) / Fold change /veh RGS16 (11720944_at) / RFU, VPS4B / Fold change vs veh, VPS4B / RFU, CREB1 / Fold change vs veh, CREB1 / RFU, DNAJC13 / Fold change vs veh, DNAJC13 / RFU, GNAQ / Fold change vs veh, GNAQ / RFU, CDK5R1 / Fold change vs veh, CDK5R1 / RFU, ZRANB3 / Fold change vs veh, ZRANB3 / RFU, CUL4A / Fold change vs veh, CUL4A / RFU, CCNY / Fold change vs veh, CCNY / RFU, UFL1 / Fold change vs veh, UFL1 / RFU, COG3 / Fold change vs veh, COG3 / RFU, DIAPH2 / Fold change vs veh, DIAPH2 / RFU, SKA2 / Fold change vs veh, SKA2 / RFU, AFF3 / Fold change vs veh, AFF3 / RFU, LMF1 / Fold change vs veh, LMF1 / RFU, IPO11 / Fold change vs veh, IPO11 / RFU, DFFB / Fold change vs veh, DFFB / RFU, FOXP1 / Fold change vs veh, FOXP1 / RFU, CARD8 / Fold change vs veh, CARD8 / RFU, STRN3 / Fold change vs veh, STRN3 / RFU, ADK / Fold change vs veh, ADK / RFU, RASSF2 / Fold change vs veh, RASSF2 / RFU, WIPF1 / Fold change vs veh, WIPF1 / RFU, LARP1B / Fold change vs veh, LARP1B / RFU, RASA1 / Fold change vs veh, RASA1 / RFU, RB1 / Fold change vs veh, RB1 / RFU, PPFIA1 / Fold change vs veh, PPFIA1 / RFU, MAT2A / Fold change vs veh, MAT2A / RFU, CCT5 / Fold change vs veh, CCT5 / RFU, WDR92 / Fold change vs veh, WDR92 / RFU, CUX1 / Fold change vs veh, CUX1 / RFU, TTC7A / Fold change vs veh, TTC7A / RFU, TMEM135 / Fold change vs veh, TMEM135 / RFU, DEPTOR / Fold change vs veh, DEPTOR / RFU, CPM / Fold change vs veh, CPM / RFU, DNAJB6 / Fold change vs veh, DNAJB6 / RFU, CACNA2D3 / Fold change vs veh, CACNA2D3 / RFU, DTX4 / Fold change vs veh, DTX4 / RFU, TFCP2 / Fold change vs veh, TFCP2 / RFU, GMCL1 /// GMCL1P1 / Fold change vs veh, GMCL1 /// GMCL1P1 / RFU, AEBP2 / Fold change vs veh, AEBP2 / RFU, SNHG1 /// SNORD22 /// SNORD25 /// SNORD26 /// SNORD27 /// SNORD28 /// SNORD29 /// SNORD31 / Fold change vs veh, SNHG1 /// SNORD22 /// SNORD25 /// SNORD26 /// SNORD27 /// SNORD28 /// SNORD29 /// SNORD31 / Fold change (Aza/veh), C12orf56 (ProbeSet 11735607_a_at) / Fold change (ACY-1035/veh), C12orf56 (ProbeSet 11735607_a_at) / Fold change (Aza/veh), FGFR1OP (ProbeSet 11751329_s_at) / Fold change (ACY-1035/veh), FGFR1OP (ProbeSet 11751329_s_at) / Fold change (Aza/veh), VPS36 (ProbeSet 11739960_a_at) / Fold change (ACY-1035/veh), VPS36 (ProbeSet 11739960_a_at) / RFU SYPL1 (11715823_x_at) / Fold change /veh SYPL1 (11715823_x_at) / RFU IGFBP7 (11715501_s_at) / Fold change /veh IGFBP7 (11715501_s_at) / RFU REEP3 (11722064_at) / Fold change /veh REEP3 (11722064_at) / RFU IGLL1 (11728026_x_at) / Fold change /veh IGLL1 (11728026_x_at): dose or concentration left out as unconfirmed. Particulars: MV-4-11 cells, 48 hours.

For `Nc1ccc(-c2cccs2)cc1NC(=O)c1ccc2c(c1)cc(C1CC1)n2CCN1CCOCC1` [ACY-1035], the “RFU SAMD14 (11745864_x_at)” value was 19.46 RFU.
